Patent US9617244B2, “Antibacterial quinoline derivatives” (JANSSEN PHARMACEUTICA NV, priority 2012, dated 2017)
Values after ≈ are worked out from the molar mass of the structure shown.

Test system: Staphylococcus aureus (ATCC29213)
Experiment: In-vitro anti-bacterial activity, microtitre plate assay, IC90 determination (non-mycobacterial strains)
Format: cell-based
Conditions: 90% inhibitory concentration for bacterial growth, 24 hours, resazurin fluorescence
In short: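 Growth inhibition measured fluorometrically with resazurin (530/590 nm) after overnight 37 °C incubation under normal atmosphere. Bacteria added at roughly 100 TCID50 per well in Mueller-Hinton broth to five-fold compound dilution series; IC90 reported in μg/ml.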

Structure (SMILES) | IC90 STA B29213
COc1nc2ccc(Br)cc2cc1C(c1ccc(Cl)cc1)C1(O)CCNCC1Cc1cccc(F)c1 (stereo not drawn) [Compound 228] | 1.80 µg/mL (≈ 3.16 µM)
COc1nc2ccc(SC)cc2cc1C(c1ccc(Cl)cc1)C1(O)CCNC(c2ccc(F)cc2C)C1 (stereo not drawn) [Compound 244] | 2.40 µg/mL (≈ 4.47 µM)
COc1nc2ccc(SC)cc2cc1C(c1ccc(Cl)cc1)C1(O)CCNC(c2ccc(F)cc2C)C1 (stereo not drawn) [Compound 245] | 1.91 µg/mL (≈ 3.56 µM)
COc1nc2ccc(Br)cc2cc1C(c1ccccc1)C1(O)CCNC(c2ccc(F)cc2C)C1 (stereo not drawn) [Compound 247] | 3.38 µg/mL (≈ 6.31 µM)
COc1nc2ccc(Br)cc2cc1C(c1ccccc1)C1(O)CCNC(c2ccc(F)cc2C)C1 (stereo not drawn) [Compound 248] | 3.38 µg/mL (≈ 6.31 µM)
COc1nc2ccc(Br)cc2cc1C(c1ccccc1)C1(O)CCNC(c2ccc(F)cc2C)C1 (stereo not drawn) [Compound 249] | 1.69 µg/mL (≈ 3.16 µM)
COc1nc2ccc(Br)cc2cc1C(c1ccccc1)C1(O)CCNC(c2ccc(F)cc2C)C1 (stereo not drawn) [Compound 250] | 1.69 µg/mL (≈ 3.16 µM)
COc1nc2ccc(S(C)(=O)=O)cc2cc1C(c1ccccc1)C1(O)CCNC(c2ccc(F)cc2C)C1 (stereo not drawn) [Compound 251] | 13.43 µg/mL (≈ 25.1 µM)
COc1nc2ccc(S(C)(=O)=O)cc2cc1C(c1ccccc1)C1(O)CCNC(c2ccc(F)cc2C)C1 (stereo not drawn) [Compound 252] | >13.43 µg/mL
COc1nc2ccc(Br)cc2cc1C(c1ccc(Cl)cc1)C1(O)CCNC(CC2CCCCC2)C1 (stereo not drawn) [Compound 256] | 2.49 µg/mL (≈ 4.46 µM)
COc1nc2ccc(Br)cc2cc1C(c1ccc(Cl)cc1)C1(O)CCNC(CC2CCCCC2)C1 (stereo not drawn) [Compound 257] | 4.97 µg/mL (≈ 8.91 µM)
COc1nc2ccc(Br)cc2cc1C(c1ccc(Cl)cc1)C1(O)CCNC(CC2CCCCC2)C1 (stereo not drawn) [Compound 259] | 1.76 µg/mL (≈ 3.15 µM)

Other lines, results leading:

IC90 STA B29213 | Structure (SMILES)
3.39 µg/mL (≈ 6.31 µM) | COc1nc2ccc(SC)cc2cc1C(c1ccc(Cl)cc1)C1(O)CCNC(Cc2ccc(F)cc2)C1 (stereo not drawn) [Compound 260]
1.70 µg/mL (≈ 3.17 µM) | COc1nc2ccc(SC)cc2cc1C(c1ccc(Cl)cc1)C1(O)CCNC(Cc2ccc(F)cc2)C1 (stereo not drawn) [Compound 261]
7.59 µg/mL (≈ 14.1 µM) | COc1nc2ccc(SC)cc2cc1C(c1ccc(Cl)cc1)C1(O)CCNC(Cc2ccc(F)cc2)C1 (stereo not drawn) [Compound 262]
3.39 µg/mL (≈ 6.31 µM) | COc1nc2ccc(SC)cc2cc1C(c1ccc(Cl)cc1)C1(O)CCNC(c2ccc(F)cc2C)C1 (stereo not drawn) [Compound 273]
0.85 µg/mL (≈ 1.58 µM) | COc1nc2ccc(SC)cc2cc1C(c1ccc(Cl)cc1)C1(O)CCNC(c2ccc(F)cc2C)C1 (stereo not drawn) [Compound 275]
3.39 µg/mL (≈ 6.31 µM) | COc1nc2ccc(SC)cc2cc1C(c1ccc(Cl)cc1)C1(O)CCNCC1Cc1cccc(F)c1 (stereo not drawn) [Compound 283]
1.70 µg/mL (≈ 3.17 µM) | COc1nc2ccc(SC)cc2cc1C(c1ccc(Cl)cc1)C1(O)CCNC(Cc2ccc(F)cc2)C1 (stereo not drawn) [Compound 299]
1.07 µg/mL (≈ 1.99 µM) | COc1nc2ccc(SC)cc2cc1C(c1ccc(Cl)cc1)C1(O)CCNC(Cc2ccc(F)cc2)C1 (stereo not drawn) [Compound 300]
6.76 µg/mL (≈ 12.6 µM) | COc1nc2ccc(SC)cc2cc1C(c1ccc(Cl)cc1)C1(O)CCNC(Cc2ccc(F)cc2)C1 (stereo not drawn) [Compound 301]

Test system: not given
Experiment: not given
Conditions: not given

Structure (SMILES) | melting point
COc1nc2ccc(Br)cc2cc1C(c1ccc(Cl)cc1)C1(O)CCNCC1Cc1cccc(F)c1 (stereo not drawn) [Compound 228] | 196 °C
COc1nc2ccc(SC)cc2cc1C(c1ccc(Cl)cc1)C1(O)CCNC(c2ccc(F)cc2C)C1 (stereo not drawn) [Compound 244] | 205 °C
COc1nc2ccc(SC)cc2cc1C(c1ccc(Cl)cc1)C1(O)CCNC(c2ccc(F)cc2C)C1 (stereo not drawn) [Compound 245] | 147 °C
COc1nc2ccc(Br)cc2cc1C(c1ccccc1)C1(O)CCNC(c2ccc(F)cc2C)C1 (stereo not drawn) [Compound 247] | 132 °C
COc1nc2ccc(Br)cc2cc1C(c1ccccc1)C1(O)CCNC(c2ccc(F)cc2C)C1 (stereo not drawn) [Compound 248] | 134 °C
COc1nc2ccc(Br)cc2cc1C(c1ccccc1)C1(O)CCNC(c2ccc(F)cc2C)C1 (stereo not drawn) [Compound 249] | 178 °C
COc1nc2ccc(Br)cc2cc1C(c1ccccc1)C1(O)CCNC(c2ccc(F)cc2C)C1 (stereo not drawn) [Compound 250] | 125 °C
COc1nc2ccc(S(C)(=O)=O)cc2cc1C(c1ccccc1)C1(O)CCNC(c2ccc(F)cc2C)C1 (stereo not drawn) [Compound 251] | 183 °C
COc1nc2ccc(S(C)(=O)=O)cc2cc1C(c1ccccc1)C1(O)CCNC(c2ccc(F)cc2C)C1 (stereo not drawn) [Compound 252] | 152 °C
COc1nc2ccc(Br)cc2cc1C(c1ccc(Cl)cc1)C1(O)CCNC(CC2CCCCC2)C1 (stereo not drawn) [Compound 256] | 118 °C
COc1nc2ccc(Br)cc2cc1C(c1ccc(Cl)cc1)C1(O)CCNC(CC2CCCCC2)C1 (stereo not drawn) [Compound 257] | 108 °C
COc1nc2ccc(Br)cc2cc1C(c1ccc(Cl)cc1)C1(O)CCNC(CC2CCCCC2)C1 (stereo not drawn) [Compound 259] | 168 °C

More lines, now with the values ahead:

melting point | Structure (SMILES)
104 °C | COc1nc2ccc(SC)cc2cc1C(c1ccc(Cl)cc1)C1(O)CCNC(Cc2ccc(F)cc2)C1 (stereo not drawn) [Compound 260]
122 °C | COc1nc2ccc(SC)cc2cc1C(c1ccc(Cl)cc1)C1(O)CCNC(Cc2ccc(F)cc2)C1 (stereo not drawn) [Compound 261]
94 °C | COc1nc2ccc(SC)cc2cc1C(c1ccc(Cl)cc1)C1(O)CCNC(Cc2ccc(F)cc2)C1 (stereo not drawn) [Compound 262]
204 °C | COc1nc2ccc(SC)cc2cc1C(c1ccc(Cl)cc1)C1(O)CCNC(c2ccc(F)cc2C)C1 (stereo not drawn) [Compound 273]
140 °C | COc1nc2ccc(SC)cc2cc1C(c1ccc(Cl)cc1)C1(O)CCNC(c2ccc(F)cc2C)C1 (stereo not drawn) [Compound 275]
184 °C | COc1nc2ccc(SC)cc2cc1C(c1ccc(Cl)cc1)C1(O)CCNCC1Cc1cccc(F)c1 (stereo not drawn) [Compound 283]
110 °C | COc1nc2ccc(SC)cc2cc1C(c1ccc(Cl)cc1)C1(O)CCNC(Cc2ccc(F)cc2)C1 (stereo not drawn) [Compound 299]
90 °C | COc1nc2ccc(SC)cc2cc1C(c1ccc(Cl)cc1)C1(O)CCNC(Cc2ccc(F)cc2)C1 (stereo not drawn) [Compound 300]
170 °C | COc1nc2ccc(SC)cc2cc1C(c1ccc(Cl)cc1)C1(O)CCNC(Cc2ccc(F)cc2)C1 (stereo not drawn) [Compound 301]

Test system: Mycobacterium smegmatis (ATCC607)
Experiment: In-vitro anti-bacterial activity against strain M. Smegmatis ATCC607
Format: cell-based
Conditions: 90% inhibitory concentration for bacterial growth, 48 hours, Alamar Blue fluorescence
In short: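 IC90 (μg/ml) derived from Alamar Blue fluorescence (530/590 nm) after 48 h growth at 37 °C under 5% CO2. About 250 CFU per well in Mueller-Hinton broth faced five-fold serial compound dilutions in BSA-containing wells.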

Structure (SMILES) | IC90 MSM 607
COc1nc2ccc(Br)cc2cc1C(c1ccc(Cl)cc1)C1(O)CCNCC1Cc1cccc(F)c1 (stereo not drawn) [Compound 228] | 2.86 µg/mL (≈ 5.02 µM)
COc1nc2ccc(SC)cc2cc1C(c1ccc(Cl)cc1)C1(O)CCNC(c2ccc(F)cc2C)C1 (stereo not drawn) [Compound 244] | 1.51 µg/mL (≈ 2.81 µM)
COc1nc2ccc(SC)cc2cc1C(c1ccc(Cl)cc1)C1(O)CCNC(c2ccc(F)cc2C)C1 (stereo not drawn) [Compound 245] | 1.07 µg/mL (≈ 1.99 µM)
COc1nc2ccc(Br)cc2cc1C(c1ccccc1)C1(O)CCNC(c2ccc(F)cc2C)C1 (stereo not drawn) [Compound 247] | 1.69 µg/mL (≈ 3.16 µM)
COc1nc2ccc(Br)cc2cc1C(c1ccccc1)C1(O)CCNC(c2ccc(F)cc2C)C1 (stereo not drawn) [Compound 248] | 2.68 µg/mL (≈ 5.01 µM)
COc1nc2ccc(Br)cc2cc1C(c1ccccc1)C1(O)CCNC(c2ccc(F)cc2C)C1 (stereo not drawn) [Compound 249] | 1.07 µg/mL (≈ 2 µM)
COc1nc2ccc(Br)cc2cc1C(c1ccccc1)C1(O)CCNC(c2ccc(F)cc2C)C1 (stereo not drawn) [Compound 250] | 1.35 µg/mL (≈ 2.52 µM)
COc1nc2ccc(S(C)(=O)=O)cc2cc1C(c1ccccc1)C1(O)CCNC(c2ccc(F)cc2C)C1 (stereo not drawn) [Compound 251] | 10.67 µg/mL (≈ 20 µM)
COc1nc2ccc(S(C)(=O)=O)cc2cc1C(c1ccccc1)C1(O)CCNC(c2ccc(F)cc2C)C1 (stereo not drawn) [Compound 252] | >13.43 µg/mL
COc1nc2ccc(Br)cc2cc1C(c1ccc(Cl)cc1)C1(O)CCNC(CC2CCCCC2)C1 (stereo not drawn) [Compound 256] | 2.22 µg/mL (≈ 3.98 µM)
COc1nc2ccc(Br)cc2cc1C(c1ccc(Cl)cc1)C1(O)CCNC(CC2CCCCC2)C1 (stereo not drawn) [Compound 257] | 3.14 µg/mL (≈ 5.63 µM)
COc1nc2ccc(Br)cc2cc1C(c1ccc(Cl)cc1)C1(O)CCNC(CC2CCCCC2)C1 (stereo not drawn) [Compound 259] | 1.40 µg/mL (≈ 2.51 µM)

Other lines, results leading:

IC90 MSM 607 | Structure (SMILES)
3.39 µg/mL (≈ 6.31 µM) | COc1nc2ccc(SC)cc2cc1C(c1ccc(Cl)cc1)C1(O)CCNC(Cc2ccc(F)cc2)C1 (stereo not drawn) [Compound 260]
1.70 µg/mL (≈ 3.17 µM) | COc1nc2ccc(SC)cc2cc1C(c1ccc(Cl)cc1)C1(O)CCNC(Cc2ccc(F)cc2)C1 (stereo not drawn) [Compound 261]
3.39 µg/mL (≈ 6.31 µM) | COc1nc2ccc(SC)cc2cc1C(c1ccc(Cl)cc1)C1(O)CCNC(Cc2ccc(F)cc2)C1 (stereo not drawn) [Compound 262]
1.70 µg/mL (≈ 3.17 µM) | COc1nc2ccc(SC)cc2cc1C(c1ccc(Cl)cc1)C1(O)CCNC(c2ccc(F)cc2C)C1 (stereo not drawn) [Compound 273]
1.35 µg/mL (≈ 2.51 µM) | COc1nc2ccc(SC)cc2cc1C(c1ccc(Cl)cc1)C1(O)CCNC(c2ccc(F)cc2C)C1 (stereo not drawn) [Compound 275]
3.39 µg/mL (≈ 6.31 µM) | COc1nc2ccc(SC)cc2cc1C(c1ccc(Cl)cc1)C1(O)CCNCC1Cc1cccc(F)c1 (stereo not drawn) [Compound 283]
1.35 µg/mL (≈ 2.51 µM) | COc1nc2ccc(SC)cc2cc1C(c1ccc(Cl)cc1)C1(O)CCNC(Cc2ccc(F)cc2)C1 (stereo not drawn) [Compound 299]
1.70 µg/mL (≈ 3.17 µM) | COc1nc2ccc(SC)cc2cc1C(c1ccc(Cl)cc1)C1(O)CCNC(Cc2ccc(F)cc2)C1 (stereo not drawn) [Compound 300]
6.76 µg/mL (≈ 12.6 µM) | COc1nc2ccc(SC)cc2cc1C(c1ccc(Cl)cc1)C1(O)CCNC(Cc2ccc(F)cc2)C1 (stereo not drawn) [Compound 301]
